From patent US20220127247A1, “N-(PYRIDIN-2-YL)PYRIDINE-SULFONAMIDE DERIVATIVES AND THEIR USE IN THE TREATMENT OF DISEASE” (NOVARTIS AG, priority 2019, published 2022) come the findings set out here.

The target in this experiment is T1, delF508-CFTR (Homo sapiens, UniProt P13569, DEL508-508).
T1 construct: expressed in transfected cells
The experiment is described as follows: Measurement of delF508-CFTR-HRP surface expression in CFBE41o- cells. Format: cell-based. The note with it: for EC50: HRP-tagged delF508-CFTR in CFBE41o- cells, 24 h with compound, luminescence, 10-point curve, top 10 μM; for Emax: efficacy relative to reference compound 3-(6-(1-(2,2-difluorobenzo[d][1,3]dioxol-5-yl)cyclopropane-1-carboxamido)-3-methylpyridin-2-yl)benzoic acid, CFBE41o- cells, 24 h, read-out: DelF508-CFTR-HRP Amax %. The method, boiled down:
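CFBE41o- cells stably expressing delF508-CFTR with HRP in the fourth extracellular loop, induced with 500 ng/mL doxycycline for 48 h, then treated with compound (top 10 μM, 10-point 3-fold) for 24 h at 37° C. Surface HRP detected by luminescence with cell-impermeant substrate; EC50 from logistic fit of triplicates, normalized to lowest concentration.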

T1 sequence (P13569 with tags, fused parts or gaps DEL508-508): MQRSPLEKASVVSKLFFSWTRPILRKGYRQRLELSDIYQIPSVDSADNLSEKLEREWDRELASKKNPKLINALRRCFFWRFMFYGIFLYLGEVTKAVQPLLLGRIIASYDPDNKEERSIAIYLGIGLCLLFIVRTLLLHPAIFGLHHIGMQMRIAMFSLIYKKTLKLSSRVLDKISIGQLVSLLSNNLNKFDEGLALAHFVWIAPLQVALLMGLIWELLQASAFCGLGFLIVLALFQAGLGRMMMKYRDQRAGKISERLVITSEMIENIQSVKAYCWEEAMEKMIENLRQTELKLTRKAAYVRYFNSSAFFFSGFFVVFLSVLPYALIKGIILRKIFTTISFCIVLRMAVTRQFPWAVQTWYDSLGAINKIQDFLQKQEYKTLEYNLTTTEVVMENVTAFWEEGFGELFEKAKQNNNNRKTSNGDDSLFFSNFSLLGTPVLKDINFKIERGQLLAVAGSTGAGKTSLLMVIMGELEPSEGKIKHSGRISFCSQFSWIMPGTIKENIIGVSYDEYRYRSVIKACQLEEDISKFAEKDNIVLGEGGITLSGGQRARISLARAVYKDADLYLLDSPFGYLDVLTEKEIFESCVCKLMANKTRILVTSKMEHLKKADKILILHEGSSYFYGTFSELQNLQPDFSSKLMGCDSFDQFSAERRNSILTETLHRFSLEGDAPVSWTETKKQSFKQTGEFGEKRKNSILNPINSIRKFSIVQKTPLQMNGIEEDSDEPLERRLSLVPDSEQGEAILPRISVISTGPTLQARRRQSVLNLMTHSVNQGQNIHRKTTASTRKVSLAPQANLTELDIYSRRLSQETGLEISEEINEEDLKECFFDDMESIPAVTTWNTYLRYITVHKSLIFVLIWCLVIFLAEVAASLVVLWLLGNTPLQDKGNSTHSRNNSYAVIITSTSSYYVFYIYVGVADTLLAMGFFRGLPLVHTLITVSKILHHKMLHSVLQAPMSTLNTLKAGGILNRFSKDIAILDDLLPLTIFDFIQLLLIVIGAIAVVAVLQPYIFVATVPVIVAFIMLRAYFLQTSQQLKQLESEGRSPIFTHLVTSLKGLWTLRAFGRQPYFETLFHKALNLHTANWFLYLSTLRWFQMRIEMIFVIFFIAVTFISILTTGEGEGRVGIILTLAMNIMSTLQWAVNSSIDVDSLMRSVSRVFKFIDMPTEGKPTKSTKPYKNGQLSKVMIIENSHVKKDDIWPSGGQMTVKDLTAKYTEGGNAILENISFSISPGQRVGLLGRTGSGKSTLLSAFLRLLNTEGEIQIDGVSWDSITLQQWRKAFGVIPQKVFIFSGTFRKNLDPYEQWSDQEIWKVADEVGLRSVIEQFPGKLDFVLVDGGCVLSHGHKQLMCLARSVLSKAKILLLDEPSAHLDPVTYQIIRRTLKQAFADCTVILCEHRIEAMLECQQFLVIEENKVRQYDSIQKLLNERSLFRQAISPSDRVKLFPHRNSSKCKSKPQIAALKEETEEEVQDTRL

Turning to `CC(C)c1ccncc1-c1nc(NS(=O)(=O)c2cccc(N3CCCC(C)(C(=O)O)C3)n2)ccc1C(F)(F)F` (centres unmarked) [Compound 30, 1-(6-(N-(4′-isopropyl-3-(trifluoromethyl)-[2,3′-bipyridin]-6-yl)sulfamoyl)pyridin-2-yl)-3-methylpiperidine-3-carboxylic Acid], the EC50 was determined as 2220 nM and the Emax was found to be 303%.

Take `Cc1ccc(F)cc1-c1nc(NS(=O)(=O)c2cccc(N(CCC(=O)O)CCC(F)(F)F)n2)ccc1C(F)(F)F` [Compound 151, 3-((6-(N-(6-(5-fluoro-2-methylphenyl)-5-(trifluoromethyl)pyridin-2-yl)sulfamoyl)pyridin-2-yl)(3,3,3-trifluoropropyl)amino)propanoic Acid]: the EC50 is 1900 nM.

In the case of `Cc1ccccc1-c1nc(NS(=O)(=O)c2cccc(NCCCC(=O)O)n2)ccc1C(F)(F)F` [Compound 36, 4-((6-(N-(6-(o-tolyl)-5-(trifluoromethyl)pyridin-2-yl)sulfamoyl)pyridin-2-yl)amino)butanoic Acid], the EC50 came to 2960 nM and the Emax was found to be 222%.

Consider `Cc1cccc(C)c1-c1nc(NS(=O)(=O)c2cccc(N3CCC[C@H]3c3nnn[nH]3)n2)ccc1Cl` [Compound 124, (S)-6-(2-(1H-tetrazol-5-yl)pyrrolidin-1-yl)-N-(5-chloro-6-(2,6-dimethylphenyl)pyridin-2-yl)pyridine-2-sulfonamide], for which the EC50 worked out at 1730 nM and the Emax was 297%.

Turning to `Cc1ccccc1-c1nc(NS(=O)(=O)c2cccc(N3CCC(CCC(=O)O)CC3)n2)ccc1C(F)(F)F` [Compound 79, 3-(1-(6-(N-(6-(o-tolyl)-5-(trifluoromethyl)pyridin-2-yl)sulfamoyl)pyridin-2-yl)piperidin-4-yl)propanoic Acid], the EC50 was determined as 2910 nM and the Emax came to 330%.

Turning to `Cc1ccccc1-c1nc(NS(=O)(=O)c2cccc(N[C@@H]3[C@@H]4CC[C@@H](C4)[C@@H]3C(=O)O)n2)ccc1C(F)(F)F` (racemic) [109a 109b (racemic mixture)], the EC50 came to 2320 nM and the Emax was 700%.

Turning to `CC1(CC(=O)O)CCN(c2cccc(S(=O)(=O)Nc3ccc(C(F)(F)F)c(-c4ccccc4-c4ccccc4)n3)n2)CC1` [Compound 23, 2-(1-(6-(N-(6-([1,1′-biphenyl]-2-yl)-5-(trifluoromethyl)pyridin-2-yl)sulfamoyl)pyridin-2-yl)-4-methylpiperidin-4-yl)acetic acid], the EC50 stood at 1260 nM.

Take `Cc1ccccc1-c1nc(NS(=O)(=O)c2cccc(N(C)CC3(C(=O)O)CCC3)n2)ccc1C(F)(F)F` [Compound 137, 1-((methyl(6-(N-(6-(o-tolyl)-5-(trifluoromethyl)pyridin-2-yl)sulfamoyl)pyridin-2-yl)amino)methyl)cyclobutane-1-carboxylic Acid]: the EC50 came out at 2030 nM.

Consider `O=C(O)CC1CCN(c2cccc(S(=O)(=O)Nc3ccc(C(F)(F)F)c(-c4ccccc4-c4ccccc4)n3)n2)CC1` [Compound 16, 2-(1-(6-(N-(6-([1,1′-biphenyl]-2-yl)-5-(trifluoromethyl)pyridin-2-yl)sulfamoyl)pyridin-2-yl)piperidin-4-yl)acetic Acid], for which the EC50 was 2010 nM and the Emax stood at 495%.

`CC1(C(=O)O)CCN(c2cccc(S(=O)(=O)Nc3ccc(C(F)(F)F)c(-c4ccccc4-c4ccccc4)n3)n2)CC1` [Compound 20, 1-(6-(N-(6-([1,1′-biphenyl]-2-yl)-5-(trifluoromethyl)pyridin-2-yl)sulfamoyl)pyridin-2-yl)-4-methylpiperidine-4-carboxylic Acid]: the EC50 worked out at 800 nM and the Emax is 973%.

For the compound `CCc1ccccc1-c1nc(NS(=O)(=O)c2cccc(N3CCC[C@H](CC(=O)O)C3)n2)ccc1C(F)(F)F` [Compound 84, (R)-2-(1-(6-(N-(6-(2-ethylphenyl)-5-(trifluoromethyl)pyridin-2-yl)sulfamoyl)pyridin-2-yl)piperidin-3-yl)acetic Acid], the EC50 is 1540 nM.

Take `O=C(O)CCCCNc1cccc(S(=O)(=O)Nc2ccc(C(F)(F)F)c(-c3ccccc3C3CC3)n2)n1` [Compound 42, 5-((6-(N-(6-(2-cyclopropylphenyl)-5-(trifluoromethyl)pyridin-2-yl)sulfamoyl)pyridin-2-yl)amino)pentanoic Acid]: the EC50 worked out at 2670 nM and the Emax is 507%.

On to `CCCCN(CCC(=O)O)c1cccc(S(=O)(=O)Nc2ccc(C(F)(F)F)c(-c3cc(F)ccc3C)n2)n1` [Compound 153, 3-(butyl(6-(N-(6-(5-fluoro-2-methylphenyl)-5-(trifluoromethyl)pyridin-2-yl)sulfamoyl)pyridin-2-yl)amino)propanoic Acid], for which the EC50 was found to be 820 nM and the Emax is 770%.

Regarding `CC1(CC(=O)O)CCN(c2cccc(S(=O)(=O)Nc3ccc(C(F)(F)F)c(-c4ccccc4C4CCC4)n3)n2)CC1` [Compound 24, 2-(1-(6-(N-(6-(2-cyclobutylphenyl)-5-(trifluoromethyl)pyridin-2-yl)sulfamoyl)pyridin-2-yl)-4-methylpiperidin-4-yl)acetic Acid], the concentration giving a half-maximal response (EC50) was 1310 nM and the Emax came to 909%.

Regarding `Cc1ccccc1-c1nc(NS(=O)(=O)c2cccc(N3CCCC(CCC(=O)O)C3)n2)ccc1C(F)(F)F` (centres unmarked) [Compound 73, 3-(1-(6-(N-(6-(o-tolyl)-5-(trifluoromethyl)pyridin-2-yl)sulfamoyl)pyridin-2-yl)piperidin-3-yl)propanoic acid], the EC50 amounted to 1390 nM.

In the case of `CCc1ccccc1-c1nc(NS(=O)(=O)c2cccc(N3CCC(CC(=O)O)CC3)n2)ccc1C(F)(F)F` [Compound 15, 2-(1-(6-(N-(6-(2-ethylphenyl)-5-(trifluoromethyl)pyridin-2-yl)sulfamoyl)pyridin-2-yl)piperidin-4-yl)acetic Acid], the EC50 came out at 2140 nM and the Emax is 397%.

For `COCCN(CCCC(=O)O)c1cccc(S(=O)(=O)Nc2ccc(C(F)(F)F)c(-c3ccccc3C)n2)n1` [Compound 158, 4-((2-methoxyethyl)(6-(N-(6-(o-tolyl)-5-(trifluoromethyl)pyridin-2-yl)sulfamoyl)pyridin-2-yl)amino)butanoic Acid], the EC50 worked out at 1810 nM and the Emax was 839%.

Consider `CCN(CCC(=O)O)c1cc(S(=O)(=O)Nc2ccc(Cl)c(-c3cc(F)ccc3C)n2)ccn1` [Compound 144, 3-((4-(N-(5-chloro-6-(5-fluoro-2-methylphenyl)pyridin-2-yl)sulfamoyl)pyridin-2-yl)(ethyl)amino)propanoic Acid], for which the EC50 was found to be 4550 nM and the Emax worked out at 52%.

In the case of `CC1(C(=O)O)CCN(c2cccc(S(=O)(=O)Nc3ccc(C(F)(F)F)c(-c4ccccc4-c4ccncc4)n3)n2)CC1` [Compound 27, 4-methyl-1-(6-(N-(6-(2-(pyridin-4-yl)phenyl)-5-(trifluoromethyl)pyridin-2-yl)sulfamoyl)pyridin-2-yl)piperidine-4-carboxylic Acid], the EC50 is 2070 nM and the Emax turned out to be 189%.

`CCCCN(CCC(=O)O)c1cccc(S(=O)(=O)Nc2ccc(C(F)(F)F)c(-c3ccccc3C)n2)n1` [Compound 152, 3-(butyl(6-(N-(6-(o-tolyl)-5-(trifluoromethyl)pyridin-2-yl)sulfamoyl)pyridin-2-yl)amino)propanoic Acid]: the EC50 was found to be 780 nM and the Emax was determined as 641%.

On to `Cc1ccccc1-c1nc(NS(=O)(=O)c2cccc(N3CCC(O)(C(C)(C)C(=O)O)CC3)n2)ccc1C(F)(F)F` [Compound 9, 2-(4-hydroxy-1-(6-(N-(6-(o-tolyl)-5-(trifluoromethyl)pyridin-2-yl)sulfamoyl)pyridin-2-yl)piperidin-4-yl)-2-methylpropanoic Acid], for which the EC50 amounted to 2020 nM and the Emax worked out at 102%.

For `Cc1ccccc1-c1nc(NS(=O)(=O)c2cccc(N[C@@H]3CCC[C@H](C(=O)O)C3)n2)ccc1C(F)(F)F` (racemic) [106a 106b (racemic mixture)], the EC50 was 1950 nM and the Emax came to 392%.

Turning to `Cc1cccc(C)c1-c1nc(NS(=O)(=O)c2cccc(NCCCCC(=O)O)n2)ccc1Cl` [Compound 4, 5-((6-(N-(5-chloro-6-(2,6-dimethylphenyl)pyridin-2-yl)sulfamoyl)pyridin-2-yl)amino)pentanoic Acid], the EC50 is 2190 nM.

As for `Cc1ccccc1-c1nc(NS(=O)(=O)c2cccc(N[C@H]3[C@@H](C(=O)O)[C@H]4C=C[C@@H]3C4)n2)ccc1C(F)(F)F` (racemic) [107a 107b (racemic mixture)], the EC50 was 2070 nM and the Emax is 763%.

With `Cc1ccc(F)cc1-c1nc(NS(=O)(=O)c2cccc(N3CCCC(C)(CC(=O)O)C3)n2)ccc1C(F)(F)F` (centres unmarked) [Compound 52, 2-(1-(6-(N-(6-(5-fluoro-2-methylphenyl)-5-(trifluoromethyl)pyridin-2-yl)sulfamoyl)pyridin-2-yl)-3-methylpiperidin-3-yl)acetic Acid], the EC50 is 1490 nM.

`Cc1ccccc1-c1nc(NS(=O)(=O)c2cccc(NCC3(C(=O)O)CC3)n2)ccc1C(F)(F)F` [Compound 11, 1-(((6-(N-(6-(o-tolyl)-5-(trifluoromethyl)pyridin-2-yl)sulfamoyl)pyridin-2-yl)amino)methyl)cyclopropane-1-carboxylic Acid]: the EC50 came out at 2250 nM and the Emax stood at 415%.

On to `CCc1ccccc1-c1nc(NS(=O)(=O)c2cccc(N3CCC(C)(CC(=O)O)CC3)n2)ccc1C(F)(F)F` [Compound 22, 2-(1-(6-(N-(6-(2-ethylphenyl)-5-(trifluoromethyl)pyridin-2-yl)sulfamoyl)pyridin-2-yl)-4-methylpiperidin-4-yl)acetic Acid], for which the EC50 stood at 1060 nM and the Emax worked out at 485%.
